Patent publication US20260132123A1, “ABAD INHIBITOR COMPOUNDS” (UNIVERSITY COURT OF THE UNIVERSITY OF ST ANDREWS, priority 2021, published 2026)

Biological target: T1, 17β-HSD10 (Homo sapiens, UniProt Q99714)
T1 construct: Histev (histidine tag with TEV site) (N, cleaved yes); made in house; host or cells: E. coli BL21-CodonPlus
T1 sequence (Q99714 1-261): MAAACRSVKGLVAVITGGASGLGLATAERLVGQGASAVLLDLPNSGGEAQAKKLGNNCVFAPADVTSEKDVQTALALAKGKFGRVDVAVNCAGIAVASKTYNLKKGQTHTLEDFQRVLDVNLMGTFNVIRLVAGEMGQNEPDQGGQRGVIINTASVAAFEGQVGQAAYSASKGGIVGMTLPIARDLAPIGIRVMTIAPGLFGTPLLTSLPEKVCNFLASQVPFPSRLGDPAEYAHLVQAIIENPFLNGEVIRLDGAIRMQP
Assay: 17β-HSD10 (ABAD) enzyme inhibition assay, NADH oxidation read at 340 nm (primary screen and dose response)
Format: biochemical
Settings: recombinant 17βHSD10 enzyme assay; for Hill Slope / Max. Fit / Min. Fit: curve fit
Experimental: Cell pellets of E. coli BL21-CodonPlus cells containing Histev-17β-HSD10 protein were re-suspended for 30 min, 4° C., in lysis buffer (20 mM NaH2PO4, 30 mM imidazole, 500 mM NaCl, 10% (v/v) glycerol, pH 7.5) with the addition of complete ethylenediaminetetraacetic acid (EDTA)-free protease inhibitor tablets (Roche), lysozyme (1 mg/mL), deoxyribonuclease (DNase) (20 μg/mL) and Triton X-100 (0.1% (v/v)). Cells were lysed by passage through a cell disruptor at 30 kPSI (Constant Systems Ltd) and the lysate was cleared by centrifugation (Sorvall Evolution RC, rotor S5-34 55-34 angle, 20500 rpm, 30 min, 4° C.). Cleared lysate was filtered (0.45 μm membrane; Whatman) then applied to a Ni-nitrilotriacetic acid (NTA) (GE Healthcare) column pre-washed with lysis buffer and protein eluted with 300 mM imidazole buffer (20 mM NaH2PO4, 300 mM imidazole, 500 mM NaCl, 10% (v/v) glycerol, pH 7.5). […] Protein digestion and dialysis was carried out at 4° C. for 16 h.
Complete digestion was firstly checked by sodium dodecyl sulfate-polyacrylamide gel electrophoresis (SDS-PAGE), then fully digested protein was passed over a second Ni-column and the flow-through, containing 17β-HSD10 protein, was concentrated using a Vivaspin column (10 kDa MWCO, GE Healthcare) to ˜7 mL before final purification using gel filtration to remove imidazole (Hi-Load 16/60 Superdex 75 prep grade column, GE Healthcare, flow rate 1.5 mL/min). Protein was eluted in gel filtration buffer (10 mM trisaminomethane (Tris-HCl), 150 mM NaCl, 10% glycerol, pH 7.5) and concentrated (Vivaspin column (10 kDa molecular weight cut off (MWCO), GE Healthcare)) to 10 mg/mL. Aliquots (10 μL) were taken and flash frozen in liquid nitrogen before final storage at −80° C.
The assay buffer used contains: 10 mM Tris. HCl (pH 7.4), 150 mM NaCl, 1 mM DTT, 0.005% Tween (polysorbate 20) and 0.01% bovine serum albumin (BSA). As indicated for some experiments the assay buffer was supplemented with 100 units/ml bovine liver catalase. All experiments were conducted in clear bottom 384-well or 1536-well low volume microplates (Corning) with a final assay volume of 20 μL and the reaction progress was monitored by oxidation of NADH as determined by reduction in absorbance at 340 nm read on the EnVision plate reader (PerkinElmer).
For primary screening an endpoint assay format was adopted in which an Echo acoustic liquid dispenser (Labcyte) was used to transfer 20 nL of either reference standard, dimethylsulfoxide (DMSO) control ([…] final assay concentration (FAC)) or test compounds (10 μM FAC) to the assay plate. 10 μL of 17β-HSD10 enzyme in assay buffer (2.5 nM, FAC) was then added to the plates using the Preddator liquid handling robot (Redd and Whyte) and plates were incubated at room temperature for 15 minutes. 10 μL of substrate mixture (100 μM acetoacetyl-CoA and 100 μM NADH, FAC) was added with the Preddator. To start the reaction and the plates were left to incubate for 35 minutes at room temperature before the absorbance at 340 nm was read on the EnVision plate reader (PerkinElmer). For kinetic assay format and dose response follow up experiments the same protocol was adopted but the absorbance at 340 nm was monitored constantly for 45 minutes from immediately after the reaction was started.

Structure (SMILES)	EC50 [nM]	Max. Effect (%)	Hill Slope	Max. Fit	Min. Fit
COc1cccc(-c2ccccc2[C@@H]2CCCN2C(=O)c2cocn2)c1 (racemic) [ESC1002598]	> 20000	50			
COc1cccc(-c2ccccc2[C@@H]2CCCN2C(=O)c2nc[nH]n2)c1 (racemic) [ESC1002599]	> 20000	10			
COc1cccc(-c2ccccc2[C@@H]2CCCN2C(=O)c2ncc[nH]2)c1 (racemic) [ESC1002600]	4370	75	1.2	86	1
COc1cccc(-c2ccccc2[C@@H]2CCCN2C(=O)c2cn[nH]c2)c1 (racemic) [ESC1002601]	6310	82	0.74	115	−7
COc1cccc(-c2ccccc2[C@@H]2CCCN2C(=O)C23CC(C2)C3)c1 (racemic) [ESC1002602]	> 20000	43			
COc1cccc(-c2ccccc2[C@@H]2CCCN2C(=O)C(C)C)c1 (racemic) [ESC1002603]	> 20000	21			
COc1cccc(-c2ccccc2[C@@H]2CCCN2C(=O)C(C)(C)C)c1 (racemic) [ESC1002604]	> 20000	20			
COc1cccc(-c2ccccc2[C@@H]2CCCN2C(=O)c2[nH]ncc2Cl)c1 (racemic) [ESC1002626]	457	95	1.6	91	−1
COc1cccc(-c2ccccc2[C@@H]2CCCN2C(=O)c2snc(Cl)c2Cl)c1 (racemic) [ESC1002627]	> 20000	5			
COc1cccc(-c2ccccc2[C@@H]2CCCN2C(=O)c2nccn2C)c1 (racemic) [ESC1002661]	> 20000	7			
COc1cc(OC)cc(-c2ccccc2[C@@H]2CCCN2C(=O)c2sccc2Cl)c1 (racemic) [ESC1002662]	603	92	1.2	92	−1
COc1ccc(-c2ccccc2[C@@H]2CCCN2C(=O)c2sccc2Cl)cc1OC (racemic) [ESC1002663]	575	93	1.1	95	−8
CCOc1cccc(-c2ccccc2[C@@H]2CCCN2C(=O)c2sccc2Cl)c1 (racemic) [ESC1002664]	417	92	1.2	92	0
COc1cc(-c2ccccc2[C@@H]2CCCN2C(=O)c2sccc2Cl)ccn1 (racemic) [ESC1002665]	603	95	1	97	−3
O=C(c1sccc1Cl)N1CCCC1c1ccccc1-c1cccc(O)c1 (racemic) [ESC1002666, (3-chlorothiophen-2-yl)(2-(3′-hydroxy-[1,1′-biphenyl]-2-yl)pyrrolidin-1-yl)methanone]	58.9	99	1.1	98	0
